Data on six compounds can be found in PMC5358321 (Synapse (New York, N.Y.), 2016).

Data set [1] has as its system Aβ plaques. The data set is described as follows: Ki using ^125I-TZDM. Format: binding.
The target of data set [2] is Aβ plaques. The settings on record: using ^125I-TZDM; ref Kung et al., 2003; cited from earlier work.
The target of data set [3] is T1, Aβ plaques (Homo sapiens, UniProt P05067). As to the kind of experiment: In vitro binding affinity: inhibition of [^3H]PIB binding in human AD brain.
Data set [4] has as its target T1, Aβ plaques. Conditions: AD brain homogenates using ^18F-florbetapir; ref Choi et al., 2009; cited from earlier work.
The target of data set [5] is T1, Aβ plaques. The data set is described as follows: Postmortem human brain. The class given is binding. Conditions: for GM/WM, local hot spots in grey matter: normal control NC2, hippocampus sections 7 μm.
Data set [6] can be described thus: In vivo rat whole body PET/CT, interscapular brown adipose tissue. The settings on record: for IBAT +ATX uptake / Ratio uptake at 4.5 min/uptake at 85 min, IBAT +ATX: atomoxetine preinjection.
A short description of data set [7]: In vivo rat PET/CT, brain uptake. Conditions: for maximum (peak) activity levels in the various brain regions: 90 min scan; for time to approach plateau in cerebellum (CB): postinjection.
The mark [8] stands for this setting: normal control NC1, hippocampus sections 7 μm.
[9] abbreviates: subject AD1, hippocampus sections 7 μm.
The mark [10] stands for this setting: subject AD2, hippocampus sections 7 μm.
The mark [11] stands for this setting: 4.5 min post iv injection, baseline.
Setting [12] is: 4.5 min, atomoxetine preinjection.
Where [13] appears, read: 85 min, atomoxetine preinjection.

“And” between values parts separate entries of the source, which are not always exact repeats. Equal values may be shown once. Marks after values point to notes of the source that are not given here.

T1 sequence (P05067 672-711 limits assumed): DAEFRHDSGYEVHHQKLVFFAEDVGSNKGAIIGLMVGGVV

With `CNc1ccc(C=Cc2ccc(N(C)C)cc2)cc1` [Dalene, 4-methylamino-4′-N,N-dimethylaminostyrylbenzene], in data set [1] (^125I-TZDM assay, Kung et al., 2003), the “Times weaker affinity compared to SB-13” value was “approximately 5”. Moreover, the “Binding affinity relative to SB-13” value in data set [1] (compared to affinity measures of SB-13 in the same assay (^125I-TZDM; Kung et al., 2003)) is “(0.21) ^i”. Further, in data set [2], the Ki is 15 nM and 15.2 nM.
`CNc1ccc(N=Nc2ccc(N(C)C)cc2)cc1` [TAZA, 4-methylamino-4′-N,N-dimethylaminoazobenzene]: the “Binding affinity Relative to PIB” value in data set [3] is 7.81 ^g.
Turning to `CNc1ccc(-c2cc3cc(O)ccc3o2)c(F)n1` [AZD4694], the Ki in data set [4] is 2.3 nM.
For `CN(C)c1ccc(N=Nc2ccc(N[11CH3])cc2)cc1` [[^11C]TAZA, 4-[^11C]methylamino-4′-N,N-dimethylaminoazo-benzene], the “displacement of [^11C]TAZA binding by PIB” value in data set [5] (10 μM PIB, gray matter of AD1 and AD2 hippocampus) was > 90% and > 94%. The “gray matter to white matter ratios in AD brains” value in data set [5] (AD brains, summary statement) is listed as > 20. Also, the “GM/WM (gray matter to white matter ratio)” value in data set [5] (setting [8]) was ~1. Also, in data set [5], the “GM/WM, local hot spots in grey matter” value is “in grey matter (≥5)”. In addition, the “GM/WM (gray matter to white matter ratio)” value in data set [5] (setting [9]) was found to be 19.6. Besides, the “GM/WM (gray matter to white matter ratio)” value in data set [5] (setting [10]) worked out at 30.5. In addition, in data set [6] (4.5 min (initial uptake)), the “IBAT +ATX uptake” value is 0.15 %Injected dose/cc and 0.148 %Injected dose/cc. Besides, the “IBAT Baseline uptake” value in data set [6] (setting [11]) is listed as 0.015 %Injected dose/cc. The “IBAT Baseline uptake” value in data set [6] (85 min (end of scan), baseline) is 0.43 %Injected dose/cc and 0.429 %Injected dose/cc. In data set [6] (85 min), the “IBAT +ATX uptake” value is 0.02 %Injected dose/cc and 0.016 %Injected dose/cc. Further, the “Ratio uptake at 4.5 min/uptake at 85 min, IBAT +ATX” value in data set [6] is 9 and 9.25. In data set [6] (baseline), the “Ratio uptake at 4.5 min/uptake at 85 min, IBAT Baseline” value stood at 0.04 and the “time at which IBAT activity leveled off / plateau” value is ~90 min. In addition, in data set [7] (setting [12]), the “Cerebellum +ATX uptake” value came to 0.695 %injected dose/cc and the “Frontal Cortex +ATX uptake” value is listed as 0.627 %injected dose/cc. In data set [7] (setting [11]), the Brain-stem uptake stood at 0.013 %injected dose/cc, the Cerebellum uptake was found to be 0.010 %injected dose/cc and the “Frontal Cortex uptake” value is listed as 0.007 %injected dose/cc. The Brain-stem uptake in data set [7] (85 min (end of scan), baseline) turned out to be 0.285 %injected dose/cc. In data set [7] (setting [13]), the “Cerebellum +ATX uptake” value is given as 0.154 %injected dose/cc and the “Frontal Cortex +ATX uptake” value was determined as 0.160 %injected dose/cc. Also, in data set [7] (85 min, baseline), the Cerebellum uptake was 0.192 %injected dose/cc and the “Frontal Cortex uptake” value worked out at 0.16 %injected dose/cc. Moreover, in data set [7] (85 min postinjection, baseline), the “Ratio of brainstem to frontal cortex” value is reported as 1.78 and the “Ratio of cerebellum to frontal cortex” value is 1.20. In addition, in data set [7] (atomoxetine preinjection), the “Ratio uptake at 4.5 min/uptake at 85 min, Brain-stem +ATX” value was found to be 4.2; the “Ratio uptake at 4.5 min/uptake at 85 min, Cerebellum +ATX” value is given as 4.51; the “Ratio uptake at 4.5 min/uptake at 85 min, Frontal Cortex +ATX” value was determined as 3.92. Besides, in data set [7] (atomoxetine preinjection, brain regions overall), the “ratio between initial time (4.5 min) and later time (85 min), brain regions” value is listed as ~5. In data set [7] (baseline), the “Ratio uptake at 4.5 min/uptake at 85 min, Brain-stem” value is on record as 0.05; the “Ratio uptake at 4.5 min/uptake at 85 min, Cerebellum” value turned out to be 0.05; the “time at which brain uptake plateaued” value is given as “approximately 60 min”; the “maximum (peak) activity levels in the various brain regions” value is recorded as “approximately 0.3 % injected dose/cc”. For the same compound, in data set [7] (baseline), the “time to approach plateau in cerebellum (CB)” value is “approximately 50 min”. Further, in data set [7] (end of scan), the “reduction of brainstem to frontal cortex ratio by atomoxetine” value is “approximately 10%”.
On to `[11CH3]Nc1ccc(-c2nc3ccc(O)cc3s2)cc1` [[^11C]PIB], for which, in data set [6] (85 min (end of scan), baseline), the “IBAT Baseline uptake” value is 0.056 %Injected dose/cc. Also, in data set [7] (setting [11]), the Cerebellum uptake is 0.823 %injected dose/cc and the “Frontal Cortex uptake” value was determined as 0.714 %injected dose/cc. The Brain-stem uptake in data set [7] (85 min (end of scan), baseline) is given as 0.056 %injected dose/cc. Also, in data set [7] (85 min, baseline), the Cerebellum uptake came out at 0.124 %injected dose/cc and the “Frontal Cortex uptake” value is reported as 0.045 %injected dose/cc.
Turning to `CN(C)c1ccc(C=Cc2ccc(N[11CH3])cc2)cc1` [[^11C]Dalene, ^11C-methylamino-4′-dimethylaminostyrylbenzene], the “fold lower GM/WM ratio than [^11C]TAZA” value in data set [5] (AD subjects) is listed as “approximately 5 fold”. Moreover, the “GM/WM (gray matter to white matter ratio)” value in data set [5] (setting [8]) is reported as ~1. Moreover, in data set [5], the “GM/WM, local hot spots in grey matter” value is listed as “grey matter (~2)”. Moreover, the “GM/WM (gray matter to white matter ratio)” value in data set [5] (setting [9]) came to 3.68. Also, the “GM/WM (gray matter to white matter ratio)” value in data set [5] (setting [10]) amounted to 5.34. For the same compound, the “IBAT +ATX uptake” value in data set [6] (4.5 min (initial uptake)) was 0.05 %Injected dose/cc and 0.054 %Injected dose/cc. For the same compound, the “IBAT Baseline uptake” value in data set [6] (setting [11]) came to 0.018 %Injected dose/cc. Moreover, the “IBAT Baseline uptake” value in data set [6] (85 min (end of scan), baseline) is 0.12 %Injected dose/cc and 0.118 %Injected dose/cc. Also, the “IBAT +ATX uptake” value in data set [6] (85 min) is given as 0.05 %Injected dose/cc. Moreover, in data set [6], the “Ratio uptake at 4.5 min/uptake at 85 min, IBAT +ATX” value came to 1.08. For the same compound, in data set [6] (baseline), the “Ratio uptake at 4.5 min/uptake at 85 min, IBAT Baseline” value is 0.15. Further, in data set [7] (setting [12]), the “Cerebellum +ATX uptake” value worked out at 0.788 %injected dose/cc and the “Frontal Cortex +ATX uptake” value worked out at 0.828 %injected dose/cc. Besides, in data set [7] (setting [11]), the Brain-stem uptake is reported as 0.011 %injected dose/cc, the Cerebellum uptake came out at 0.015 %injected dose/cc and the “Frontal Cortex uptake” value is on record as 0.015 %injected dose/cc. In addition, the Brain-stem uptake in data set [7] (85 min (end of scan), baseline) is listed as 0.124 %injected dose/cc. In data set [7] (setting [13]), the “Cerebellum +ATX uptake” value worked out at 0.304 %injected dose/cc; the “Frontal Cortex +ATX uptake” value was 0.30 %injected dose/cc and 0.304 %injected dose/cc; the “Ratio of brainstem to frontal cortex” value is reported as 1.75; the “Ratio of cerebellum to frontal cortex” value is on record as 1.0. In data set [7] (85 min, baseline), the Cerebellum uptake is 0.072 %injected dose/cc and the “Frontal Cortex uptake” value is on record as 0.069 %injected dose/cc. In data set [7] (85 min postinjection, baseline), the “Ratio of brainstem to frontal cortex” value was found to be 1.80 and the “Ratio of cerebellum to frontal cortex” value came out at 1.04. In addition, in data set [7] (atomoxetine preinjection), the “Ratio uptake at 4.5 min/uptake at 85 min, Brain-stem +ATX” value turned out to be 2.12; the “Ratio uptake at 4.5 min/uptake at 85 min, Cerebellum +ATX” value is listed as 2.59; the “Ratio uptake at 4.5 min/uptake at 85 min, Frontal Cortex +ATX” value came out at 2.72. Further, in data set [7] (baseline), the “Ratio uptake at 4.5 min/uptake at 85 min, Brain-stem” value is on record as 0.09; the “Ratio uptake at 4.5 min/uptake at 85 min, Cerebellum” value is listed as 0.21; the “time at which brain uptake plateaued” value is reported as “approximately 60 min”; the “maximum (peak) activity levels in the various brain regions” value is listed as “approximately 0.1 % injected dose/cc”. Further, the “time to approach plateau in cerebellum (CB)” value in data set [7] (baseline) was “approximately 40 min”.

Usually Ki stands for a measure of affinity in units of concentration, obtained from inhibition or displacement.
